Data published in patent publication US20260317335A1, “COMPOUNDS OF FUSED PYRROLE RINGS OR FUSED PYRIDINE RINGS” (PHARMAENGINE, INC., priority 2023, published 2026).

What follows are molecules tested on HCC1569 (CCNE1-amplified breast cancer cell line) (assay: Cell Proliferation Assay (CellTiter-Glo, 7 days)).
Format: cell-based
Protocol: The sensitivity of cancer cell lines with normal or elevated CCNE1 levels to test compounds was evaluated in a cell proliferation assay. Cell lines were maintained in ATCC-recommended culture media supplemented with 10% FBS and 1% penicillin/streptomycin in a humidified 5% CO2 incubator. All test compounds were stored as 20 mM DMSO stock solutions.
On Day 0, CCNE1-wild type (wt) and CCNE1-amplified (amp) cells were seeded into 384-well plates and incubated for 16 to 24 hours in a humidified 5% CO2 incubator. On Day 1, test compounds were dispensed into wells at specified concentrations (n=2), with DMSO volume normalized to the highest concentration. Plates with compound-treated cells were incubated for 7 days in a humidified 5% CO2 incubator.
On Day 7, plates were removed from the incubator and equilibrated to room temperature. Relative inhibition was assessed by adding CellTiter-Glo reagent. Data were plotted as a percentage of the DMSO control for each compound in each cell line. IC50 values were calculated using a four-parameter nonlinear regression model (GraphPad Prism).

IC50 | SMILES
18 nM | Cc1cc2c(C(N)=O)c(N)n(-c3c(C)ccc(O)c3C)c2nc1C [Rp6306, reference compound]
666 nM | Cc1ccc2[nH]ncc2c1-n1c(N)c2c3c(c(C)c(C)nc31)C=CNC2=O [Compound 126]
> 1000 nM | Cc1nc2c3c(c1C)C=CNC(=O)c3c(N)n2-c1c(Cl)cc(F)c2[nH]ncc12 [Compound 136]
> 1000 nM | Cc1nc2c3c(c1C)C=CNC(=O)c3c(N)n2-c1c(C)c(F)cc2[nH]ncc12 [Compound 138]
566 nM | Cc1nc2c3c(c1C)C=CNC(=O)c3c(N)n2-c1c(Cl)c(F)cc2[nH]ncc12 [Compound 137]
